Data taken from patent US7575889B2, “Compound combinations for inhibiting cell division and methods for their identification and use” (President and Fellows of Harvard College, priority 2001, dated 2009).
In brackets after ≈: the same amount, converted by molar mass. Where two headings read alike, the source gives them in different places.

Legend:
E. coli strain DRC39 = assay: Combination anti-bacterial treatment at sub-MIC concentrations, growth of DRC39; type: cell-based; conditions: for reduction of the MIC when combined with sub-MIC 26E-10: DRC39
Description: Cell growth was assessed by visual inspection of cells incubated in culture tubes in this experiment and in the second, third, and fourth experiments described in this Example. In the fifth experiment growth was measured by reading optical density (OD600) using a multiwell plate reader. Cells were inoculated at a low concentration (1-2×10^5 cells/ml), such that the medium appeared clear.

[1] = system: E. coli DRC39 (ΔacrAB::kan); conditions: for MIC: E. coli DRC39 (ΔacrAB::kan), MIC99, broth dilution
FtsZ GTPase activity = FtsZ GTPase activity (Escherichia coli, UniProt P0A9A6); conditions: at the concentrations tested
[2] = system: gram-negative and gram-positive bacteria; assay: Antibacterial activity against gram-negative and gram-positive bacteria; type: cell-based
Description: FIG. 19 is a table illustrating the minimum inhibitory concentrations of FtsZ GTPase inhibitory compounds identified in vitro. The compounds were tested against a variety of gram-negative and gram-positive bacteria.

[3] = target: M. tuberculosis FtzZ (FtsZMt) GTPase (Mycobacterium tuberculosis, UniProt P9WN95); assay: Malachite green-phosphomolybdate assay of FtsZ GTPase activity (M. tuberculosis FtsZ); type: biochemical; conditions: 5 min preincubation at 30° C., 1 mM GTP, averages from three determinations
FtsZ protofilaments = FtsZ protofilaments (Escherichia coli, UniProt P0A9A6); conditions: for effect on FtsZ polymers (class of inhibitor): electron micrographs, FIGS. 13-15
[4] = system: FtsZ ring assembly in E. coli DRC39 cells; assay: FtsZ ring assembly in vivo (FtsZ-GFP fluorescence microscopy) in DRC39 cells; type: cell-based
[5] = system: E. coli MC1000 (wild-type); assay: MIC, broth dilution, E. coli MC1000; conditions: MIC99, broth dilution
B. cereus = assay: Killing of B. cereus; type: cell-based
[6] = system: E. coli DRC40 (DRC39 ftsZ84); assay: MIC and growth/phenotype, E. coli DRC40
Clostridium perfringens = type: cell-based
[7] = system: E. coli DRC42 (DRC39 recA::cat); assay: MIC, E. coli DRC42
DRC40/pBR-ftsZ+ cells = assay: MIC and growth/phenotype, DRC40 with wild-type ftsZ in trans; type: cell-based, E. coli

Chain of FtsZ protofilaments (P0A9A6 whole entry): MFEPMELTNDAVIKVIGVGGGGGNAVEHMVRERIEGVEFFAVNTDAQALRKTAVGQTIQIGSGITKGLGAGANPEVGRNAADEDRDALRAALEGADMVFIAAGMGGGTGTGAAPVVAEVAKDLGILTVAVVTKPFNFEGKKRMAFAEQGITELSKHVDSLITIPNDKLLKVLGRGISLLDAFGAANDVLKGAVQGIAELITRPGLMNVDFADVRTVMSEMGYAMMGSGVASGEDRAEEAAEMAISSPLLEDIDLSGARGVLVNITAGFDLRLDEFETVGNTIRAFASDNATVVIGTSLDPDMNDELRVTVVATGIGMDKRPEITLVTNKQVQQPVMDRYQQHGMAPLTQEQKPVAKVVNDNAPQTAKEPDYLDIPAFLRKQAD
Chain of FtsZ GTPase activity (P0A9A6 whole entry): as above
Chain of M. tuberculosis FtzZ (FtsZMt) GTPase (P9WN95 whole entry): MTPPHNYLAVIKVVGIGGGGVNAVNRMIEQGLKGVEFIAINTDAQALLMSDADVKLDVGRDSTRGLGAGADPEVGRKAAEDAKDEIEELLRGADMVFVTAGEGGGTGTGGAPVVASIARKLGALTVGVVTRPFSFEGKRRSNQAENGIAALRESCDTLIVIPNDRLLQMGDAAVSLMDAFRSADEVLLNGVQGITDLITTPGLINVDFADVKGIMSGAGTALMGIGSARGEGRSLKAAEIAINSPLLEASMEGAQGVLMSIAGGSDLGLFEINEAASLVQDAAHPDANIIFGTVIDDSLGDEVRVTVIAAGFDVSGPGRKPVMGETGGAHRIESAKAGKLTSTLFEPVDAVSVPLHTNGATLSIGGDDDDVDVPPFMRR

## CCN1C(=Cc2ccc3ccccc3[n+]2CC)C=Cc2ccccc21.[Cl-] [3G-09]
E. coli strain DRC39; alone, 0.375 μM, OD600
  amount of growth relative to the absence of compound: 92%
  growth inhibition: 8%
[1]
  MIC: 6 µM
FtsZ GTPase activity
  effect on FtsZ GTPase activity in vitro: apparently do not affect FtsZ GTPase activity

## C=CCOc1c(Br)cc(S(=O)(=O)c2cc(Br)c(O)c(Br)c2)cc1Br [18M-04]
[2]
  activity against gram positive and gram negative bacteria: kills gram positives
[3]
  IC50: > 100 µM
FtsZ protofilaments
  effect on FtsZ protofilament assembly in vitro: destabilizers of FtsZ protofilament assembly
  effect on FtsZ polymers (class of inhibitor): dose dependent destabilizing effect on the polymers
FtsZ GTPase activity
  effect on FtsZ GTPase activity in vitro: reproducibly and robustly inhibited FtsZ GTPase activity

## CCN(CC)CCNc1nc(C=Cc2ccc(Cl)cc2)nc2cc3ccccc3cc12 [16L-09]
E. coli strain DRC39
  reduction of the MIC when combined with sub-MIC 26E-10: 4 fold
[1]
  MIC: 10 µM (≈ 4.31 µg/mL)
FtsZ protofilaments
  effect on FtsZ polymers (class of inhibitor): cause bundling of FtsZ protofilaments
FtsZ GTPase activity
  effect on FtsZ GTPase activity in vitro: inhibit FtsZ GTPase activity
FtsZ GTPase activity; listed as 16-L09
  effect on FtsZ GTPase activity in vitro: reproducibly and robustly inhibited FtsZ GTPase activity

## Nc1c(C=Cc2cc3cc(C4=NCCN4)ccc3o2)[nH]c2cc(C3=NCCN3)ccc12 [58P-18]
E. coli strain DRC39
  reduction of the MIC when combined with sub-MIC 26E-10: ≥ 2 fold
[1]
  MIC: 80 µM (≈ 32.8 µg/mL)
FtsZ protofilaments
  effect on FtsZ polymers (class of inhibitor): cause bundling of FtsZ protofilaments
FtsZ GTPase activity
  effect on FtsZ GTPase activity in vitro: inhibit FtsZ GTPase activity
FtsZ GTPase activity; listed as 58-P18
  effect on FtsZ GTPase activity in vitro: reproducibly and robustly inhibited FtsZ GTPase activity
[4]; 40 μM, DRC39 cells
  FtsZ ring in treated cells: none of the treated cells appear to contain a medial FtsZ ring
  time to start of cell elongation: ≤ 60 min

## Oc1ccc(Cl)cc1Cc1cc(Cl)cc(Cc2cc(Cl)ccc2O)c1O [27D-12]
[2]
  activity against gram positive and gram negative bacteria: effective against gram positive bacteria at very low concentrations and also kills gram negative species
[1]
  MIC: 20 µM (≈ 8.19 µg/mL)
FtsZ protofilaments
  effect on FtsZ polymers (class of inhibitor): dose dependent destabilizing effect on the polymers
FtsZ GTPase activity
  effect on FtsZ GTPase activity in vitro: inhibit FtsZ GTPase activity
FtsZ GTPase activity; listed as 27-D12
  effect on FtsZ GTPase activity in vitro: reproducibly and robustly inhibited FtsZ GTPase activity

## CC[n+]1ccc(/C=C/N(C)c2ccccc2)c2ccccc21.[I-] [26E-10]
[5]
  MIC: >40 µM
B. cereus
  killing of B. cereus: efficiently killed
E. coli strain DRC39; singly, 5 μM, OD600
  amount of growth relative to the absence of compound: 41%
  growth inhibition: 59%
[6]; DRC40/pBR322, 5 μM, 30° C.
  growth: absolutely no growth
[6]; E. coli DRC40 (DRC39 ftsZ84), slight turbidity believed to be unlysed filaments
  MIC: 2.5 µM
Clostridium perfringens; 80 μM, anaerobic conditions
  phenotype and growth: filamentation phenotype in the presence of 80 μM 26E-10 without any overt effect on cell growth
Clostridium perfringens; Clostridium perfringens
  phenotype: filaments
[1]; DRC39, 5 μM, 30° C.
  growth and morphology: mixture of filaments of varying lengths and short cells present at a low density
[1]
  MIC: 10 µM
[7]
  MIC: 10 µM
DRC40/pBR-ftsZ+ cells; DRC40/pBR-ftsZ+, 5 μM
  cell density and filamentation versus DRC40/pBR322: higher cell density and less pronounced filamentation
DRC40/pBR-ftsZ+ cells; DRC40 with wild-type ftsZ provided in trans (pBR-ftsZ+)
  MIC: 10 µM
[4]; 10 μM (MIC), DRC39, within 60 min of treatment
  cell length (filamentation): ~4 ×
[4]; 10 μM, DRC39, 60 min
  Z-rings in elongated cells: markedly reduced in number and diminished in intensity
[4]; DRC39, 90 min
  Z-rings after 90 min treatment: most of the cells were devoid of distinct Z-rings

## CCN1C(=Cc2ccc3c4ccccc4ccc3[n+]2CC)C=Cc2ccccc21.Cc1ccc(S(=O)(=O)[O-])cc1 [7N-12]
E. coli strain DRC39; individually, 0.3 μM
  amount of growth relative to the absence of compound: 98%
  growth inhibition: 2%
FtsZ GTPase activity
  effect on FtsZ GTPase activity in vitro: inhibit FtsZ GTPase activity

## CC[n+]1c(/C=C/N(C)c2ccccc2)n(-c2ccccc2)c2ccc(-c3nc4ccccc4s3)cc21 [27F-02]
E. coli strain DRC39
  reduction of the MIC when combined with sub-MIC 26E-10: 5 fold
[3]
  IC50: 70 µM
[1]
  MIC: 5 µM
FtsZ protofilaments
  effect on FtsZ protofilament assembly in vitro: destabilizers of FtsZ protofilament assembly
  effect on FtsZ polymers (class of inhibitor): cause bundling of FtsZ protofilaments
FtsZ GTPase activity
  effect on FtsZ GTPase activity in vitro: inhibit FtsZ GTPase activity
FtsZ GTPase activity; listed as 27-F02
  effect on FtsZ GTPase activity in vitro: reproducibly and robustly inhibited FtsZ GTPase activity
